In brackets after ≈: the same amount, converted by molar mass. Several values for one entry are separate records, joined by “and”; a condition that tells them apart may be missing. Equal entries are not always repeated. Where two headings read alike, the source gives them in different places.
Experiments:
[1] = test system: P. falciparum NF54 strain; experiment: Antiplasmodial activity, parasite lactate dehydrogenase assay, NF54; format: cell-based, Plasmodium falciparum; conditions: parasite lactate dehydrogenase assay over 72 h, read-out: Pf IC50 ± SD NF54
[2] = test system: Dd2; experiment: microbe, parasite or virus in culture; format: cell-based; conditions: Plasmodium falciparum, DD2, 72 h, read-out: Dd2 IC50 ± SD
[3] = pKa of piperidine N; format: physicochemical
[4] = test system: multidrug-resistant strain, K1; experiment: Antiplasmodial activity, parasite lactate dehydrogenase assay, K1; format: cell-based, Plasmodium falciparum; conditions: Plasmodium falciparum, K1, 72 h, parasite lactate dehydrogenase assay over 72 h; read-out: Pf IC50 ± SD K1
[5] = molecular target: PvPI4K (Plasmodium vivax, UniProt A5KB26); experiment: biochemical; conditions: purified recombinant PvPI4K, 10 μM ATP, ADP-Glo; mean of N ≥ 2; read-out: PvPI4K IC50 ± SD
Sequence of PvPI4K (A5KB26 entry or part of it): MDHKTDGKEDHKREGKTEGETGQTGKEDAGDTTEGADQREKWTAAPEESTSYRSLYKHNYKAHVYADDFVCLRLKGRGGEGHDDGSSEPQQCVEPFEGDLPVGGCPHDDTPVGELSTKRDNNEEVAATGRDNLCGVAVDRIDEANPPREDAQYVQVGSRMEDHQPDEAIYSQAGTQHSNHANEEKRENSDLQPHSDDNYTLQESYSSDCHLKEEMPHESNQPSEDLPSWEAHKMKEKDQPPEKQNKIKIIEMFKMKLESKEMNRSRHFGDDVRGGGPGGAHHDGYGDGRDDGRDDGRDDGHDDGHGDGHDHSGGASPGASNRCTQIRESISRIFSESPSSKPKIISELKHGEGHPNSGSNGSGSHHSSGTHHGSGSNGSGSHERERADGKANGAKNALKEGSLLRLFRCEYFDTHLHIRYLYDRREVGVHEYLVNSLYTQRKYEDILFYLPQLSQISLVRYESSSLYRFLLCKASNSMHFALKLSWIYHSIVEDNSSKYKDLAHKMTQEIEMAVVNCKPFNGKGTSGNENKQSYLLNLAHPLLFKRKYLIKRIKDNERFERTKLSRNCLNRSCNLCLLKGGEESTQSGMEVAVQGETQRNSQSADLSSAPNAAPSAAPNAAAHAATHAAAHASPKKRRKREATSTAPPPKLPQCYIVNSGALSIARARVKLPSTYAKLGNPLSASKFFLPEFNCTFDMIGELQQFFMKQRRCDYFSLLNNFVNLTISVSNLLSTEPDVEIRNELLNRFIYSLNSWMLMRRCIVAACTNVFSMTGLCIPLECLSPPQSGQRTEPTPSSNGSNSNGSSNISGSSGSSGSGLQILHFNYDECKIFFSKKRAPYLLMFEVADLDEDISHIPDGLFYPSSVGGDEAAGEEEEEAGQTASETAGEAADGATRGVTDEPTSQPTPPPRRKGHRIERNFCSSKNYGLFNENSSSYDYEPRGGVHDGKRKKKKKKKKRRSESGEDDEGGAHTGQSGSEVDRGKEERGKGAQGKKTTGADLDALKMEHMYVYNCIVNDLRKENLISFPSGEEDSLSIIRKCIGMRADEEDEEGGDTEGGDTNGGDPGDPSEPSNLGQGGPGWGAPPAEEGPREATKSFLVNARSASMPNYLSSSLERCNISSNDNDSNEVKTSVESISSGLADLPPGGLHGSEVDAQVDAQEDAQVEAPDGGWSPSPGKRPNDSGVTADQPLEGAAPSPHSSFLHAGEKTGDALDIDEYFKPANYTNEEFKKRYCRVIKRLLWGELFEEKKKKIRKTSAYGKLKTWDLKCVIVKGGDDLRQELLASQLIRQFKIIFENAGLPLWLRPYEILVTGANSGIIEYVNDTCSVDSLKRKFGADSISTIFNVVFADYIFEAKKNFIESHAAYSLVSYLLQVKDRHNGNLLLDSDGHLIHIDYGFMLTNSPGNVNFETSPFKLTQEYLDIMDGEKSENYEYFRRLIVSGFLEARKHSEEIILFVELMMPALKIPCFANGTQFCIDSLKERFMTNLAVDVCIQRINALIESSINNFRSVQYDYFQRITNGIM

[6] = molecular target: T1, hERG channels (Homo sapiens, UniProt Q12809); experiment: hERG inhibition, QPatch automated patch clamp assay; format: cell-based; conditions: CHO cells stably expressing the hERG channels
T1 construct: expressed in transfected cells; host or cells: CHO cells
T1 sequence (Q12809 whole entry): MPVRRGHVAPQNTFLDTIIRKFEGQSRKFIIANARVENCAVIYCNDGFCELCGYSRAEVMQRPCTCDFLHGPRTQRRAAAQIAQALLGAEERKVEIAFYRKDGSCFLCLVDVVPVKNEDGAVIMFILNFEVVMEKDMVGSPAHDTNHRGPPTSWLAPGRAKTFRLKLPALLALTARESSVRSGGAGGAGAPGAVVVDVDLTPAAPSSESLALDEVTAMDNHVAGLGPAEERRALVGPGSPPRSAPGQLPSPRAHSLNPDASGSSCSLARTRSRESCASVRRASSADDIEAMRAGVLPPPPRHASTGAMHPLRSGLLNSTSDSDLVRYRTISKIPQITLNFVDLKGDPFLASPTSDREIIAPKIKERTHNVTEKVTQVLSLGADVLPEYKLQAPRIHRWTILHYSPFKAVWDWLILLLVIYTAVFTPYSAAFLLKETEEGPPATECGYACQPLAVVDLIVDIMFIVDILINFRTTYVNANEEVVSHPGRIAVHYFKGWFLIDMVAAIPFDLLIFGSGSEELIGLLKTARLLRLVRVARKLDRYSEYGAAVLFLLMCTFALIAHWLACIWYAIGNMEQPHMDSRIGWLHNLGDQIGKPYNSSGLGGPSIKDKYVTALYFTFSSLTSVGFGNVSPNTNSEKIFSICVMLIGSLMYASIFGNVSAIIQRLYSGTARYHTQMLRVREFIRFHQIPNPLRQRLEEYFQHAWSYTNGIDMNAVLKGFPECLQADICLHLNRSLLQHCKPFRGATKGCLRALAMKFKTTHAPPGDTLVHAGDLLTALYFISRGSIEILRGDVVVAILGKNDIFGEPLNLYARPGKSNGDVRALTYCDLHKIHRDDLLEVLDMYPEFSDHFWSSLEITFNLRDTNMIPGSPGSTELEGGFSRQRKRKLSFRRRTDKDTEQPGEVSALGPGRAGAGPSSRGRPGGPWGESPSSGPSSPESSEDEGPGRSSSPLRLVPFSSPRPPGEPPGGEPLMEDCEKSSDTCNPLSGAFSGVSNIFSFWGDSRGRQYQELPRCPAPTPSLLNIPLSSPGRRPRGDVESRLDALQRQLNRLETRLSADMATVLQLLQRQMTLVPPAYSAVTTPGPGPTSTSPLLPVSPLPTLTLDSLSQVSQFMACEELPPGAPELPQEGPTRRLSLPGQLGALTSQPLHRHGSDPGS

[7] = test system: Chinese Hamster Ovary (CHO) cell line; experiment: cells; format: cell-based; conditions: Cricetulus griseus, CHO; MTT assay over 48h; read-out: CHO IC50
[8] = test system: Dd2_PI4K_CNV; experiment: microbe, parasite or virus in culture; format: cell-based; conditions: Plasmodium falciparum, 72 h, read-out: Dd2_PI4K_CNV IC50
[9] = Solubility, miniaturized shake flask method
[10] = test system: β-hematin (βH) formation; experiment: NP-40 mediated cell-free β-hematin assay; conditions: read-out: β-hematin IC50; cell-free NP-40 detergent-mediated assay; n = 2
[11] = LogD shake-flask; format: physicochemical; conditions: n-octanol/phosphate buffer (1:1), phosphate buffer (pH 7.4) / n-octanol
[12] = molecular target: cytochrome P450 3A4 (Homo sapiens, UniProt P08684); experiment: Cytochrome P450 inhibition, 3A4; format: in vitro ADME
Sequence of cytochrome P450 3A4 (P08684 whole entry): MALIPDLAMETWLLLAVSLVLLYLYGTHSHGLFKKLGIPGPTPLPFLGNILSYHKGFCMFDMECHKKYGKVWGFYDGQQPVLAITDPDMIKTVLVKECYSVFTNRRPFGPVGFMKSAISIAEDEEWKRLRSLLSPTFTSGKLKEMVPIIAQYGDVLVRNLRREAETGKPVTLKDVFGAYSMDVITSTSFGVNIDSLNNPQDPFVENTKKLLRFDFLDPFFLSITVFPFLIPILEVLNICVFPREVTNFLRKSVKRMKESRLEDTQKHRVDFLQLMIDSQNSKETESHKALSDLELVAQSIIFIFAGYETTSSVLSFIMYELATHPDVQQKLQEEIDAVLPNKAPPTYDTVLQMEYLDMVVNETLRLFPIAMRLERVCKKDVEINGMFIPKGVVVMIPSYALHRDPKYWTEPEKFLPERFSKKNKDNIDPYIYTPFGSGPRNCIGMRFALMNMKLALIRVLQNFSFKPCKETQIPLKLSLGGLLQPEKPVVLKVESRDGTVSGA

[13] = molecular target: cytochrome P450 2C19 (Homo sapiens, UniProt P33261); experiment: Cytochrome P450 inhibition, 2C19; format: in vitro ADME
Sequence of cytochrome P450 2C19 (P33261 whole entry): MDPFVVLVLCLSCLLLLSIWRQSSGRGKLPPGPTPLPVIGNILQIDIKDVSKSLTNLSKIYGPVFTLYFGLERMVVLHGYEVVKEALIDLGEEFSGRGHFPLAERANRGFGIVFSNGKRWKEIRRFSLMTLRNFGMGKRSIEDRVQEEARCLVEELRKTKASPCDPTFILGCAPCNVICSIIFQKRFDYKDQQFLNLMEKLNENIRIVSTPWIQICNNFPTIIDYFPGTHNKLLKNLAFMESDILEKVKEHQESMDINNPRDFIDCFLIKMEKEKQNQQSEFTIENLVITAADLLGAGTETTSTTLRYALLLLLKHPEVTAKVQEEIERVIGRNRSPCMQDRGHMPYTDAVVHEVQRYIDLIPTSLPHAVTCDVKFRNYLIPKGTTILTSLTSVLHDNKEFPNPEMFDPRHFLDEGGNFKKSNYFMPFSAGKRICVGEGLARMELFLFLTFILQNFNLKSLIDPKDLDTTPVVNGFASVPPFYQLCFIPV

[14] = molecular target: cytochrome P450 2C9 (Homo sapiens, UniProt P11712); experiment: Cytochrome P450 inhibition, 2C9; format: in vitro ADME
[15] = molecular target: HuPI3Kα (Homo sapiens, UniProt P42336); experiment: Human kinase inhibition, HuPI3Kα; conditions: read-out: HuPI3Kα, IC50
[16] = molecular target: HuPI4Kβ (Homo sapiens, UniProt Q9UBF8); experiment: Human kinase inhibition, HuPI4Kβ; conditions: read-out: HuPI4Kβ, IC50
Sequence of HuPI4Kβ (Q9UBF8 whole entry): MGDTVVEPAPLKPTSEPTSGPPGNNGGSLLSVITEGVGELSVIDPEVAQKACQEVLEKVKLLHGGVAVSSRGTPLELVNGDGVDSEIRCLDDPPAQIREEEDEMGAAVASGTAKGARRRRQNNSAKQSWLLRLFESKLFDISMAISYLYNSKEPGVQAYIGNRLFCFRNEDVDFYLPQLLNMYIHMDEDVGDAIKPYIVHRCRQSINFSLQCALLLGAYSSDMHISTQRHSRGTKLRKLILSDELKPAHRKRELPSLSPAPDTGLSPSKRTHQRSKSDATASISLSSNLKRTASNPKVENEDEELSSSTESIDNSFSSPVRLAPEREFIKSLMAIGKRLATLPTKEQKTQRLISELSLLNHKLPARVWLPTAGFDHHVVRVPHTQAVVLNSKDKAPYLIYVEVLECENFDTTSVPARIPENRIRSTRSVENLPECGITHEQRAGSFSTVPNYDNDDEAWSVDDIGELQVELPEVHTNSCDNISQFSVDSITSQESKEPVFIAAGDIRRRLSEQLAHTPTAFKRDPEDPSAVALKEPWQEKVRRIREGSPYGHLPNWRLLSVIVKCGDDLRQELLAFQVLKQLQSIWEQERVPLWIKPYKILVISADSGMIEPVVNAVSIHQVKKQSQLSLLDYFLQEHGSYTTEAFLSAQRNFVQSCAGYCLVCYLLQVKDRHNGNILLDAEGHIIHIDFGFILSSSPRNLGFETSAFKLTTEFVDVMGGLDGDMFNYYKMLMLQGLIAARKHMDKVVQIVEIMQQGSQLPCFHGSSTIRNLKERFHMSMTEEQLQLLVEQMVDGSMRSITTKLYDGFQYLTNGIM

[17] = In vitro microsomal stability, mouse; format: in vitro ADME; conditions: mouse liver microsomes, pH 7.4, read-out: microsomal CLint, app mouse
[18] = Plasma protein binding, mouse; format: in vitro ADME; conditions: read-out: PPB fu, mouse
[19] = test system: P. falciparum PI4K conditional knockdown line; experiment: microbe, parasite or virus in culture; format: cell-based, Plasmodium falciparum; conditions: for IC50: Plasmodium falciparum
[20] = In vitro microsomal stability, human; format: in vitro ADME; conditions: pooled human liver microsomes, pH 7.4, read-out: microsomal CLint, app human
[21] = molecular target: cytochrome P450 2D6 (Homo sapiens, UniProt P10635); experiment: Cytochrome P450 inhibition, 2D6; format: in vitro ADME
Sequence of cytochrome P450 2D6 (P10635 whole entry): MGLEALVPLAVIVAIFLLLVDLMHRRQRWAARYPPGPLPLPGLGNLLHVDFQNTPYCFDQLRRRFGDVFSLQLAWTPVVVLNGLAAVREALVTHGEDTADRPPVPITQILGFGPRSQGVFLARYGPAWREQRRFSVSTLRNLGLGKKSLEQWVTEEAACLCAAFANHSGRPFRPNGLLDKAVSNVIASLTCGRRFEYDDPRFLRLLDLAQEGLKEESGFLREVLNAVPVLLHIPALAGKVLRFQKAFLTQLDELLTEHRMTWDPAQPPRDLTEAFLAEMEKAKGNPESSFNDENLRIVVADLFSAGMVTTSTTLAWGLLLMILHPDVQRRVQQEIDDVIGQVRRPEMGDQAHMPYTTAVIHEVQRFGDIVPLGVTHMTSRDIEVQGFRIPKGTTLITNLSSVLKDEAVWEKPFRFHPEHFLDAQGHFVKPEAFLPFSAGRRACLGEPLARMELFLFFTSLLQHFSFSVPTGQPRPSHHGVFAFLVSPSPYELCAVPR
Excerpt: Table 10 In Vitro and In Vivo Pharmacokinetic Parameters ^a | column: 14

[22] = test system: P. falciparum; experiment: In vitro resistance selection under sustained drug pressure; format: cell-based, Plasmodium falciparum; conditions: sustained drug pressure at 3 × IC90 for 60 days in vitro (data not shown)
[23] = In vitro microsomal stability, rat; format: in vitro ADME; conditions: rat liver microsomes, pH 7.4, read-out: microsomal CLint, app rat
[24] = molecular target: HuMINK1 (Homo sapiens, UniProt Q8N4C8); experiment: Human kinase inhibition, HuMINK1; conditions: read-out: HuMINK1, IC50
[25] = molecular target: HuMAP4K4 (Homo sapiens, UniProt O95819); experiment: Human kinase inhibition, HuMAP4K4; conditions: read-out: HuMAP4K4, IC50
[26] = Mouse pharmacokinetic studies; conditions: male, BalbC
[27] = Plasmodium falciparum, NF54, 72 h

## O[C@H]1CNCC[C@H]1Nc1ccnc2ccc(-c3ccc(C(F)(F)F)nc3)nc12 (relative stereo) [Compound 27, rac-cis-4-[[6-[6-(Trifluoromethyl)pyridin-3-yl]-1,5-naphthyridin-4-yl]amino]piperidin-3-ol]
[1]; [27]
  IC50: 140 nM
[1]
  IC50: 130 ± 24 nM
[2]
  IC50: 437 ± 71 nM
[3]
  pKa: 8.99
[4]
  IC50: 334 ± 147 nM
[5]
  IC50: 370 ± 175 nM
[6]
  IC50: 24500 nM
[7]
  IC50: 33000 nM
[8]
  IC50: 381 ± 17 nM
[9]; aqueous solution
  solubility at 20 h: 200 µM (≈ 77.9 µg/mL)
[10]
  IC50: 140000 ± 7000 nM
[11]
  logD at 3 h: 1.02

## N[C@H]1CCN(c2ccnc3ccc(-c4ccc(C(F)(F)F)nc4)nc23)C1 [Compound 14, (3S)-1-[6-[6-(Trifluoromethyl)pyridin-3-yl]-1,5-naphthyridin-4-yl]pyrrolidin-3-amine]
[12]
  IC50: > 20000 nM
[13]
  IC50: 18000 nM
[1]; [27]
  IC50: 31 ± 3 nM
[2]
  IC50: 46 ± 20 nM
[4]
  IC50: 87 ± 30 nM
[5]
  IC50: 1210 ± 220 nM
[14]
  IC50: > 20000 nM
[15]
  IC50: 5200 nM
[16]
  IC50: > 10000 nM
[17]
  CLint scaled at 1 µM: < 46 mL/min/kg
[7]
  IC50: 12000 nM
[8]
  IC50: 41 ± 10 nM
[18]
  fraction unbound at 5 h, 5 µM: 0.08
[9]; PBS, pH 6.5
  solubility at 20 h: 200 µM (≈ 71.9 µg/mL)
[9]; aqueous solution
  solubility at 20 h: 200 µM (≈ 71.9 µg/mL)
[10]
  IC50: 33000 nM and < 60000 nM
[19]; 72 h, read-out: ABS IC50 for PfPI4K cKD, N=1, +aTc, experiment N=1, +aTc (500 nM, control conditions), 72 hours
  IC50: 23 nM
[19]; 72 h, read-out: ABS IC50 for PfPI4K cKD, N=1, no aTc, experiment N=1, no aTc (PI4K knockdown), 72 hours
  IC50: 25 nM
[19]; 72 h, read-out: ABS IC50 for PfPI4K cKD, N=2, +aTc, experiment N=2, +aTc (500 nM, control conditions), 72 hours
  IC50: 37 nM
[19]; 72 h, read-out: ABS IC50 for PfPI4K cKD, N=2, no aTc, experiment N=2, no aTc (PI4K knockdown), 72 hours
  IC50: 38 nM
[19]; 72 h, read-out: ABS IC50 for PfPI4K cKD, N=3, +aTc, experiment N=3, +aTc (500 nM, control conditions), 72 hours
  IC50: 21 nM
[19]; 72 h, read-out: ABS IC50 for PfPI4K cKD, N=3, no aTc, experiment N=3, no aTc (PI4K knockdown), 72 hours
  IC50: 20 nM
[19]; read-out: ABS IC50 for PfPI4K cKD, Mean + SD, +aTc, mean of N=3, +aTc (control conditions)
  IC50: 27 ± 9 nM
[19]; read-out: ABS IC50 for PfPI4K cKD, Mean + SD, no aTc, mean of N=3, no aTc (PI4K knockdown)
  IC50: 28 ± 9 nM
[19]; experiment N=1, +aTc vs no aTc
  ABS IC50 for PfPI4K cKD, N=1, fold shift: 0.90 fold
[19]; experiment N=2, +aTc vs no aTc
  ABS IC50 for PfPI4K cKD, N=2, fold shift: 0.98 fold
[19]; experiment N=3, +aTc vs no aTc
  ABS IC50 for PfPI4K cKD, N=3, fold shift: 1.04 fold
[19]; mean, +aTc vs no aTc
  ABS IC50 for PfPI4K cKD, mean fold shift (fold decrease in IC50 on knockdown): 0.97 fold
[20]
  CLint scaled at 1 µM: < 13 mL/min/kg
[21]
  IC50: > 20000 nM
[22]
  Attempts to raise mutants: not successful
[23]
  CLint scaled at 1 µM: < 21 mL/min/kg
[24]
  IC50: > 10000 nM
[25]
  IC50: > 10000 nM
[26]
  in vivo mouse CLu: 135 mL/min/kg
[26]; in vivo, iv, 2 mg/kg
  Vd at 24 h: 4.4 L/kg
  half-life at 24 h: 6.3 h
[26]; in vivo, po
  bioavailability at 24 h: 27%
[26]; iv, 2 mg/kg
  in vivo mouse CLb: 10.80 mL/min/kg
